Data reported in patent publication US11426381B2, “Lipoic acid choline ester compositions and methods of use” (NOVARTIS AG, priority 2014, dated 2022).
Blank lines part the entries; values can stand above or below the molecule they belong to.

Legend:
mouse lenses (C57BL/6J) = experiment: In vitro mouse lens elasticity (coverslip method); conditions: eight month old mouse lenses, 12 hours incubation
Procedure: (§1) In vitro test: Eight month old mouse lenses (C57BL/6J) were incubated for 12 hours in medium supplemented with selected levels (0-500 μM) of lipoic acid (LA). Lens elasticity was measured using the coverslip method known. After elasticity measurements, lenses were homogenized in a dissociation medium containing alkylating agent 1 (free SH modification). The homogenate was filtered and the rinsed, resuspended, retentate was treated with reducing agent (TCEP) and alkylating agent 2 (S-S SHs modified). After filtration and rinses, the levels of alkylated SH groups in retentate 2 was determined. Bovine serum albumin was the positive control for the sulfhydryl analysis.

lens protein disulfides = experiment: In vitro mouse lens protein disulfide analysis; conditions: eight month old mouse lenses, 12 hours incubation
Procedure: as §1

[1] = Stability of LACE chloride in propylene glycol (HPLC potency); type: physicochemical; conditions: 1.0% in propylene glycol
Procedure: The HPLC method to analyze LACE Chloride used a Phenomenex Luna CN column with a 5 um particle size, 100 A pore size, 2.0 mm inner diameter, and 50 mm length (PN: 00B-4255-B0). The mobile phase consisted of 50% of 0.1 M Sodium Acetate and 50% Acetonitrile. The flow rate was 1.0 mL/min, the detection wavelength was 225 nm, the column temperature was 40° C., the injection volume was 20 uL, and the run time was 50 minutes. The working LACE chloride concentration was 0.1 mg/mL and plastic HPLC vials were used for the analysis.
A solution of LACE chloride in propylene glycol was prepared to determine its stability. A solution of 1.0% LACE chloride in propylene glycol was prepared and stored at −20° C. (ambient RH), 5° C. (ambient RH), and 25° C. (40% RH). The solutions were tested for LACE chloride potency after storage for 3 months.
In these samples, HPLC analysis (using the method described in Example 2) a peak with relative retention time (RRT) of approximately 0.73. […] No additional peaks are detected. The peak at 0.73 RRT is not detected in the LACE chloride solutions in citrate buffer.

[2] = Stability of LACE in neat glycerol; type: physicochemical; conditions: mixed in neat glycerol, 80° C. for 8 hours
Procedure: Lipoic acid choline ester was mixed in neat glycerol (no water) with brief heating to 80° C. for 8 hours. High concentrations of lipoic acid choline ester in a final clear solution were found. The final clear solution is stable.

[3] = system: New Zealand white rabbits; experiment: Draize test for eye drop ocular safety; type: in vivo, rabbit; conditions: EV06 3%-5%
Procedure: Safety of the EV06 was evaluated by the Draize test to evaluate its use at concentrations as high as 5%. The Draize Test is an acute toxicity test devised in 1944 by Food and Drug Administration (FDA) toxicologists John H. Draize and Jacob M. Spines. Initially used for testing cosmetics, the procedure involves applying 0.5 mL or 0.5 g of a test substance to the eye or skin of a restrained, conscious animal, and then leaving it for set amount of time before rinsing it out and recording its effects. Corneal, iris, and conjunctival responses were evaluated using the scale described by Draize et al., J. Pharmacol. & Exp. Therapeutics, 82:377-390 (1944)]. Because of the importance of the cornea to vision, 73% of the Draize score is based on corneal damage. A normal score was 0, increasing amounts of damage result in a higher score, with the maximum score possible being 110. A Draize score was computed at each observation time by averaging the total scores of all rabbits tested. Observations were made and recorded 24, 48, and 72 hours after treatment.
This test consists of instilling 30 to 50 μL of the product into one eye of 6 New Zealand white rabbits and monitoring to observe any abnormal clinical signs such as redness of conjunctiva, swelling, or increased blinking which may indicate irritation.

[4] = Toxicokinetics (plasma levels) in GLP rabbit study; type: in vivo; conditions: rabbits; topical DIOPTIN three times daily
Procedure: Screening studies were conducted to determine the highest tolerated concentration when applied topically to rabbit eyes, in conjunction with bioanalysis of corneal, aqueous humor, and lens concentrations of EV06 and its metabolites. In a GLP rabbit study, animals were treated with topical 0, 1, 3 or 4% DIOPTIN™ (lipoic acid choline ester) solution three times daily for 90 consecutive days. Slit-lamp exams and fundoscopy were performed at pre-dose baseline and after 1, 30, and 90 days of dosing. Daily clinical observations, food consumption, body weights, clinical pathology, and toxicokinetics were performed. Full necropsy and ocular histopathology were also conducted.

[5] = Corneal penetration and ocular pharmacokinetics in rabbits (HPLC-ESI/MS/MS); type: in vivo, rabbit
Procedure: Esters of lipoic acid were evaluated in rabbits for corneal penetration. Rabbits were also used to examine the metabolism, absorption, and distribution of LACE (LA prodrug) using HPLC-ESI/MS/MS (LOD>2 ng/ml).

EC50 (mouse lenses (C57BL/6J); 0-500 μM LA, read-out: [LA]50 for increase in lens elasticity): 50 ± 10 µM | EC50 (lens protein disulfides; 0-500 μM LA, read-out: [LA]50 for decrease in lens protein disulfides): 50 ± 10 µM
Compound: O=C(O)CCCCC1CCSS1 (centres unmarked) [LA, lipoic acid]
concentration of maximal effect on lens elasticity (mouse lenses (C57BL/6J)): 100 µM | concentration of maximal effect on lens protein disulfides (lens protein disulfides): 100 µM

stability of LACE chloride in propylene glycol ([1]; 3 months storage at 5° C. and 25° C.): not stable | conversion to peak at RRT approximately 0.73 ([1]; stored at room temperature, 3 months): completely converted
Compound: C[N+](C)(C)CCOC(=O)CCCC[C@@H]1CCSS1.[Cl-] [LACE chloride, lipoic acid choline ester chloride]

stability of clear solution in neat glycerol [2]: stable | corneal penetration compared with lipoic acid [5]: improve penetration over lipoic acid
Compound: C[N+](C)(C)CCOC(=O)CCCC[C@@H]1CCSS1 [LACE, lipoic acid choline ester]
Draize Rabbit Eye test score ([3]; 30 to 50 μL into one eye, scale 0 to 110): 2.0+/−0.6 | Draize test classification ([3]; New Zealand white rabbits): not corrosive or irritating | Plasma levels of EV06 [4]: at or below the limits of detection
